{
  "source": "patent US20200368234A1",
  "about": "“PHOTORECEPTOR GENE MODULATOR PHOTOREGULIN 3 FOR TREATMENT OF RETINAL DISEASE” (University of Washington, priority 2017, published 2020)",
  "key": {"photoreceptors": {"tested_on": "photoreceptors", "experiment": "Electron microscopy of photoreceptor morphology in wild type mice after PR3", "type": "in vivo", "details": "10 mg/kg i.p. for 3 consecutive days from P11, EM at P14", "experimental": "FIG. 2C compares electron microscope micrographs of retinal sections of wild type mice treated with 10 mg/kg PR3 or DMSO vehicle. Compared to controls, PR3 retinas have arrested inner and outer segment development and less compact heterochromatin in the ONL. Scale bars represent 10 μm (top) and 2 μm (bottom).\nElectron microscopy (EM) was used to perform an ultrastructural analysis of photoreceptor morphology after PR3 treatment. Wild type mice were intraperitoneally injected with vehicle or PR3 for 3 consecutive days starting at P11. At P14, 24 h after the third injection, the mice were euthanized and processed their retinas for EM. Photoreceptor outer segments begin to form during the second and third postnatal week; genetic loss-of-function mutations in Nr2e3 lead to an impairment in rod outer segment formation.\n(§1) Photoregulin3 was identified by searching previous small molecule screens with SciFinder and PubChem for Nr2e3 interacting molecules. It was initially obtained from ChemDiv and then synthesized and purified in large quantities in the lab after initial screening. For in vivo experiments, mice were injected intraperitoneally with PR3 dissolved in DMSO at 10 mg/kg.\nMice were euthanized by CO2, and then perfused with 0.9% saline followed by 4% glutaraldehyde in 0.1 M sodium cacodylate buffer. Eye cups were fixed in 4% glutaraldehyde in 0.1 M sodium cacodylate buffer, washed with 0.1 M sodium cacodylate buffer, and then post-fixed in 2% osmium tetroxide. After fixation, eye cups were washed with water, dehydrated through a graded series of ethanol, incubated in propylene oxide and then epon araidite, polymerized overnight at 60° C., and then sectioned at a thickness of 70 nm. Images were obtained using a JEOL JEM-1230 electron microscope."}, "Nr2e3-NCOR dimer complex": {"biological_target": "T1, Nr2e3-NCOR dimer complex (Homo sapiens, UniProt Q9Y5X4)", "T1 construct": "expressed in transfected cells; host or cells: CHO-S cells", "details": "PubChem Assay IDs 602229, 624378, 624394, 651849; cited from earlier work"}, "Rho^P23H mice": {"tested_on": "Rho^P23H mice", "experiment": "ERG visual function in Rho^P23H mice at P21", "type": "in vivo, mouse", "details": "10 mg/kg PR3, vs littermate DMSO controls", "experimental": "FIG. 4A compares scotopic b-wave amplitudes from P21 Rhodopsin^P23H mice treated with 10 mg/kg PR3 or DMSO vehicle (n=4-8, *p<0.05, t-test).\nFIG. 4D compares photopic b-wave amplitudes from P21 Rhodopsin^P23H mice treated with 10 mg/kg PR3 or DMSO vehicle (n=4-8, *p<0.05, t-test).\nTo determine whether photoreceptor degeneration can be prevented, Rho^P23H mice were treated with PR3 or vehicle from P12-P14 until P21, during the period of rod photoreceptor death (FIG. 3A). At P21, visual function was assessed with ERGs and euthanized the mice for histological and qPCR analyses. At P21, control Rho^P23H mice had only 2-3 rows of photoreceptors remaining in their ONL (FIGS. 3B and 3C). Rods were sparse and there were few remaining cones (S Opsin+ and Cone Arrestin+ photoreceptors). Control Rho^P23H mice had minimal scotopic and photopic b-wave amplitudes by ERG analysis (FIGS. 4A, 4B, 4D, and 4E). […] The surviving cones in the PR3-treated retinas were more elongated and healthier than in the DMSO control retinas.\nas §1, with “mg/kg. […]” for “mg/kg.”"}, "Rhodopsin": {"tested_on": "Rhodopsin", "experiment": "Rhodopsin protein expression (immunofluorescence assay) in dissociated retinal cell cultures", "type": "cell-based", "details": "P5 mouse dissociated retinal cultures, 2 days treatment, vs DMSO and PR1", "from_the_text": "In order to identify compounds that may target Nr2e3 a cheminformatic strategy was used to screen hit compounds previously identified to interact with recombinant Nr2e3 in transfected CHO-S cells in a luciferase-based assay (PubChem Assay IDs: 602229, 624378, 624394, and 651849). As a secondary screen for initial hits, dissociated primary retinal cell cultures were used and assayed Rhodopsin, because it is a well-defined target of Nr2e3 signaling and is expressed at high levels exclusively in rod photoreceptors. Retina were dissociated from postnatal day 5 (P5) mice and cultured them in media containing the small molecules. After treatment for 2 days, the cells were collected for qPCR analysis and quantified Rhodopsin expression. […] This finding was confirmed with an immunofluorescence assay to examine Rhodopsin protein expression in dissociated retinal cultures from P5 mice.\nRetinas were dissected from postnatal day 5 (P5) mice and dissociated by treatment with 0.5% Trypsin diluted in calcium- and magnesium-free HBSS from 10 minutes at 37° C. Trypsin was inactivated by adding an equal volume of FBS and cells were pelleted by centrifugation at 4° C. and resuspended in media (Neurobasal-A containing 1% FBS, 1% N2, 1% B27, 1% Pen/Strep, and 0.5% L-glutamine). For qPCR, cells were plated into 24-well tissue culture plates at a density of 1 retina/well (see qPCR section below). […]"}},
  "data": [
    {"smiles": "COc1cc2nc(CN3CC=C(c4ccccc4)CC3)nc(O)c2cc1OC", "note": "[PR3]", "values": [
      {"measurement": "heterochromatin of rod nuclei (EM)", "setting": "photoreceptors", "result": "smaller patches of densely packed heterochromatin compared to DMSO retinas"},
      {"measurement": "photoreceptor apoptosis / cell death in ONL nuclei (EM)", "setting": "photoreceptors", "result": "not due to an increase in cell death"},
      {"measurement": "photoreceptor outer segment development (EM)", "setting": "photoreceptors", "result": "prevented outer segment development"},
      {"measurement": "modulation of Nr2e3 in luciferase-based assay", "setting": "Nr2e3-NCOR dimer complex", "result": "identified as a chemical modulator of Nr2e3"},
      {"measurement": "photopic b-wave amplitudes (ERG)", "setting": "Rho^P23H mice", "result": "significantly elevated"},
      {"measurement": "scotopic b-wave amplitudes (ERG)", "setting": "Rho^P23H mice", "result": "significantly elevated"},
      {"measurement": "Rhodopsin protein expression", "setting": "Rhodopsin", "result": "reduced expression of Rhodopsin compared to DMSO vehicle and PR1"}
    ]}
  ]
}
